This note sets out measurements from patent US11116740B2, “Methods for use in support of planned supplement and food ingredient products for diagnosis and treatment of metabolic syndrome” (priority 2015, dated 2021).

Series [1] is described as follows: Serum fatty acid profile (% serum fatty acids, GC/MS), feeding study. The series is classed as in vivo, bottlenose dolphin (Tursiops truncatus). The method, then: The dolphins started on a 100% capelin diet.
Changes in percent serum for the targeted fatty acids (C17:0, C20:4n6, and C22:0), as well as insulin, glucose, triglycerides, iron, transferrin saturation, and ferritin, were assessed among feeding study dolphins during weeks 3, 6, 12, 18 and 24 and compared to week 0 using pairwise comparison t-tests. Erythrocyte membrane fatty acids were measured during weeks 3, 6, 12, 18, and 24. Serum ferritin in Group A dolphins increased.
Blood was collected into BD Vacutainer serum separator tubes (for insulin, iron, ferritin, serum fatty acids profile, and serum chemistry), EDTA BD Vacutainer blood collection tubes (for erythrocyte fatty acid profile), and Lithium Heparin BD Vacutainer blood collection tubes (for plasma chemistry, including triglycerides). Blood tubes were centrifuged at 3000 rpm for 10 minutes within 30-60 minutes of collection and chilled during processing until shipment. Remaining serum/plasma was transferred to cryovials and stored at −80° C. until shipment on dry ice via overnight courier to the reference laboratories.
Serum and red blood cell membrane fatty acid profiles were performed by the Genetics Laboratories at the Kennedy Krieger Institute. Fatty acids were analyzed by capillary gas chromatography/mass spectrometry of pentaflourobenzyl bromide fatty acid derivatives using an AT-Silar-100 column (Grace, Columbia, Md. 21044) as previously described. For red blood cells only, the lipids were extracted with hexane:isopropanol before analysis. Each run was required to pass clinical laboratory quality control before the data were released. CV % were typically under 10%. Percent fatty acids in serum was used as a sturdier index to help reduce potential variability in serum among study dolphins. Iron, TIBC, and ferritin were analyzed at the Kansas State Veterinary Diagnostic Laboratory by colorimetric analysis on the Roche Cobas Mira (Roche Diagnostics, Indianapolis, Ind. 46250) per the manufacturer's protocol. Plasma triglycerides and glucose were directly measured using the Roche Cobas 8000 system (Roche Diagnostics, Indianapolis, Ind. 46250) per the manufacturers' protocol. Glucose was measured photometrically at the Animal Health Diagnostic Center at Cornell University on the Roche Diagnostics Modular Analytics P Module clinical chemistry analyzer (Roche Diagnostics, Indianapolis, Ind. 46250). Total insulin was analyzed at ARUP Laboratories by ultrafiltration/quantitative chemiluminescent immunoassay on the Siemens ADVIA Centaur Immunoassay system (Siemens Medical Solutions USA, Inc., Malvern, Pa. 19355).

A short description of series [2]: Serum fatty acid metabolomics (UPLC-MS/MS), feeding study. The method, then: This study examined global metabolic profiles in six dolphins (“Group A dolphins”). The dolphins lived in netted enclosures within San Diego Bay. The dolphins started on a 100% capelin diet. Group A dolphins were fed one-third of their daily diet in the morning after their routine overnight fast and 2h postprandial, in-water, and trained blood samples were drawn (typically near 10:00 a.m.). An additional four dolphins (“Group C dolphins”) were fed the capelin diet.
Two hour post-prandial samples were collected from the dolphins at baseline (week 0) and at four time points following the switch to the modified diet: 6, 12, 18, and 24 weeks. Routine monthly samples collected from four reference dolphins that were housed in the same environment as the Group A dolphins were assessed for glucose, triglycerides, ferritin, and percent serum fatty acids.
Sample Preparation: Samples were prepared using the automated MicroLab STAR® system from Hamilton Company. Several recovery standards were added prior to the first step in the extraction process for QC purposes. Proteins were precipitated with methanol under vigorous shaking for 2 min (Glen Mills GenoGrinder 2000) followed by centrifugation. The resulting extract was divided into five fractions: two for analysis by two separate reverse phase (RP)/UPLC-MS/MS methods with positive ion mode electrospray ionization (ESI), one for analysis by RP/UPLC-MS/MS with negative ion mode ESI, one for analysis by HILIC/UPLC-MS/MS with negative ion mode ESI, and one sample was reserved. Samples were placed briefly on a TurboVap® (Zymark) to remove the organic solvent. The sample extracts were stored overnight under nitrogen before preparation for analysis.
Ultrahigh Performance Liquid Chromatography-Tandem Mass Spectroscopy (UPLC-MS/[…]): Each of four methods utilized a Waters ACQUITY ultra-performance liquid chromatography (UPLC) and a Thermo Scientific Q-Exactive high resolution/accurate mass spectrometer interfaced with a heated electrospray ionization (HESI-II) source and Orbitrap mass analyzer operated at 35,000 mass resolution. A sample extract was dried, then reconstituted in solvents compatible to each of the four methods. Each reconstitution solvent contained a series of standards at fixed concentrations to ensure injection and chromatographic consistency. A first aliquot was analyzed using acidic positive ion conditions, chromatographically optimized for more hydrophilic compounds. In this method, the extract was gradient eluted from a C18 column (Waters UPLC BEH C18-2. 1×100 mm, 1.7 μm) using water and methanol, containing 0.05% perfluoropentanoic acid (PFPA) and 0.1% formic acid (FA). A second aliquot was also analyzed using acidic positive ion conditions, however it was chromatographically optimized for more hydrophobic compounds. In this method, the extract was gradient eluted from the same afore mentioned C18 column using methanol, acetonitrile, water, 0.05% PFPA and 0.01% FA and was operated at an overall higher organic content. A third aliquot was analyzed using basic negative ion optimized conditions using a separate dedicated C 18 column. The basic extracts were gradient eluted from the column using methanol and water, however with 6.5 mM Ammonium Bicarbonate at pH 8. […] The MS analysis alternated between MS and data-dependent MSn scans using dynamic exclusion. The scan range varied slighted between methods but covered 70-1000 m/z.
Data Extraction and Compound Identification: Raw data was extracted, peak-identified and QC processed using Metabolon's hardware and software. The systems were based on a web-service platform utilizing Microsoft's .NET technologies, which ran on high-performance application servers and fiber-channel storage arrays in clusters to provide active failover and load-balancing. Compounds were identified by comparison to library entries of purified standards or recurrent unknown entities.

Where [3] appears, read: Group A dolphins, modified diet, proportional to value at outset of study.
The mark [4] stands for this setting: bottlenose dolphin (Tursiops truncatus), in vivo, 3 weeks.
Where [5] appears, read: bottlenose dolphin (Tursiops truncatus), in vivo, 6 weeks.
[6] abbreviates: bottlenose dolphin (Tursiops truncatus), in vivo, 12 weeks.
The mark [7] stands for this setting: bottlenose dolphin (Tursiops truncatus), in vivo, 18 weeks.
Where [8] appears, read: bottlenose dolphin (Tursiops truncatus), in vivo, 24 weeks.

For `CCCCCCCCCCCCCCCCCCCCCC(=O)O` [Behenic acid], the “Serum fatty acids (%)” value was determined as 0.21 ± 0.06% in series [1] (Group A dolphins, modified diet, week 3); 0.25 ± 0.07% in series [1] (Group A dolphins, modified diet, week 6); 0.28 ± 0.06% in series [1] (Group A dolphins, modified diet, week 12); 0.26 ± 0.04% in series [1] (Group A dolphins, modified diet, week 18); 0.29 ± 0.04% in series [1] (Group A dolphins, modified diet, week 24).
Take `CCCCCCCCCCCCCCCCC(=O)O` [Heptadecanoic acid, heptadecanoic acid]: the “serum concentration 6 wk / 0 wk” value in series [2] (setting [3]) was 1.25. Further, in series [2] (setting [3]), the “serum concentration 12 wk / 0 wk” value was 1.65. Moreover, the “serum concentration 18 wk / 0 wk” value in series [2] (setting [3]) is 1.72. Also, the “serum concentration 24 wk / 0 wk” value in series [2] (setting [3]) turned out to be 1.21. For the same molecule, the “Serum fatty acids (%)” value in series [1] (setting [4]) is 0.5 ± 0.2%; in series [1] (setting [5]) it was 0.5 ± 0.1%; in series [1] (setting [6]), 0.7 ± 0.3%; in series [1] (setting [7]) it was 0.8 ± 0.4%; in series [1] (setting [8]), 0.7 ± 0.2%. In addition, the “serum levels compared to week 0” value in series [1] (in vivo) is “higher”.
On to `CCCCC/C=C\C/C=C\C/C=C\C/C=C\CCCC(=O)O` [Arachidonic acid, (5Z,8Z,11Z,14Z)-icosa-5,8,11,14-tetraenoic acid], for which, in series [2] (setting [5]), the “serum concentration 6 wk / 0 wk” value was found to be 1.19. The “serum concentration 12 wk / 0 wk” value in series [2] (setting [6]) is recorded as 1.62. In addition, in series [2] (setting [7]), the “serum concentration 18 wk / 0 wk” value is on record as 1.5. In series [2] (setting [8]), the “serum concentration 24 wk / 0 wk” value is on record as 1.19. The “Serum fatty acids (%)” value amounted to 6 ± 2% in series [1] (setting [4]); 7 ± 2% in series [1] (setting [5]); 10 ± 4% in series [1] (setting [6]); 10 ± 3% in series [1] (setting [7]); 10 ± 3% in series [1] (setting [8]).
`C=CCCCCCCCCC(=O)O` [10-undecenoate (1 l:ln1), 10-undecenoate]: in series [2] (in vivo), the “serum concentration 6 wk / 0 wk” value came to 1.41, the “serum concentration 12 wk / 0 wk” value was found to be 1.54, the “serum concentration 18 wk / 0 wk” value is reported as 1.22 and the “serum concentration 24 wk / 0 wk” value amounted to 1.75.
Taken in the same sequence, the figures for `CCCCC/C=C\C/C=C\CCCCCCCCCCCC(=O)O` [docosadienoate (22:2n6), docosadienoate] were 0.85, 1.08, 0.99 and 0.54.
As to `CC/C=C\C/C=C\C/C=C\C/C=C\C/C=C\CCCC(=O)O` [eicosapentaenoate (EPA; 20:5n3), eicosapentaenoate], the “serum concentration 6 wk / 0 wk” value in series [2] (setting [5]) amounted to 0.88. Further, the “serum concentration 12 wk / 0 wk” value in series [2] (setting [6]) was determined as 0.99. For the same molecule, the “serum concentration 18 wk / 0 wk” value in series [2] (setting [7]) turned out to be 0.88. The “serum concentration 24 wk / 0 wk” value in series [2] (setting [8]) came out at 0.57.
